Reference: patent publication US9408852B2, “Method of lowering serum uric acid levels with (S)-tofisopam” (PHARMOS CORPORATION, priority 2011, dated 2016)

Key:
Format in all cases: in vivo, human
serum uric acid [1] = assay: Serum uric acid in postmenopausal women, single- and multiple-dose study (Comparative Example 4); design: Serum uric acid, baseline adjusted data, Median / Serum uric acid, unadjusted data, Mean / Serum uric acid, unadjusted data, Median / Serum uric acid, baseline adjusted data, Mean: unit not given here
Protocol: In a double-blind, randomized, placebo-controlled, single- and multiple-dose study in postmenopausal women with enantiomerically-pure (R)-tofisopam, patients were treated with placebo, 100 mg once a day (qd) of (R)-tofisopam, or 200 mg qd of (R)-tofisopam for the first day of the study, and then with placebo, 100 mg twice a day (bid) of (R)-tofisopam, or 200 mg bid of (R)-tofisopam for Days 2 to 7 of the study.

serum uric acid [2] = assay: Serum uric acid in male and female outpatients with irritable bowel syndrome, 3 months (Comparative Example 5); design: Serum uric acid Actual Value, Mean / Serum uric acid Change from Baseline, Mean / Serum uric acid Actual Value, Median / Serum uric acid Change from Baseline, Median: unit not given here; conditions: for Serum uric acid Actual Value, Mean / Serum uric acid Actual Value, Median / Serum uric acid Change from Baseline, Mean / Serum uric acid Change from Baseline, Median: men and women with irritable bowel syndrome
Protocol: The study lasted 3 months, and patients were treated with 200 mg of (R)-tofisopam twice a day (bid).

serum uric acid [3] = assay: Serum uric acid in female outpatients with irritable bowel syndrome, 3 months (Comparative Example 6); design: Serum uric acid Actual Value, Mean / Serum uric acid Change from Baseline, Mean / Serum uric acid Actual Value, Median / Serum uric acid Change from Baseline, Median: unit not given here; conditions: for Serum uric acid Actual Value, Mean / Serum uric acid Actual Value, Median / Serum uric acid Change from Baseline, Mean / Serum uric acid Change from Baseline, Median: women with irritable bowel syndrome
Protocol: The study lasted 3 months, and patients were treated with 100 mg, 200 mg or 300 mg of enantiomerically-pure (R)-tofisopam twice a day.

[4] = 100 mg bid (qd on D 1, bid on D 2 to D 7), time 6 h
[5] = 100 mg bid (qd on D 1, bid on D 2 to D 7), time 24 h
[6] = 100 mg bid (qd on D 1, bid on D 2 to D 7), time 72 h
[7] = 100 mg bid (qd on D 1, bid on D 2 to D 7), time 143 h
[8] = 100 mg bid (qd on D 1, bid on D 2 to D 7), time 168 h
[9] = 200 mg bid (qd on D 1, bid on D 2 to D 7), time 6 h
[10] = 200 mg bid (qd on D 1, bid on D 2 to D 7), time 24 h
[11] = 200 mg bid (qd on D 1, bid on D 2 to D 7), time 72 h
[12] = 200 mg bid (qd on D 1, bid on D 2 to D 7), time 143 h
[13] = 200 mg bid (qd on D 1, bid on D 2 to D 7), time 168 h

CC[C@H]1C(C)=NN=C(c2ccc(OC)c(OC)c2)c2cc(OC)c(OC)cc21 [(R)-tofisopam]
Serum uric acid, baseline adjusted data, Mean (serum uric acid [1]; [4]): 0
Serum uric acid, baseline adjusted data, Median (serum uric acid [1]; [4]): 0
Serum uric acid, unadjusted data, Mean (serum uric acid [1]; [4]): 0.19
Serum uric acid, unadjusted data, Median (serum uric acid [1]; [4]): 0.19
Serum uric acid, baseline adjusted data, Mean (serum uric acid [1]; [5]): 0.01
Serum uric acid, baseline adjusted data, Median (serum uric acid [1]; [5]): 0.01
Serum uric acid, unadjusted data, Mean (serum uric acid [1]; [5]): 0.20
Serum uric acid, unadjusted data, Median (serum uric acid [1]; [5]): 0.21
Serum uric acid, baseline adjusted data, Mean (serum uric acid [1]; [6]): 0.01
Serum uric acid, baseline adjusted data, Median (serum uric acid [1]; [6]): 0.01
Serum uric acid, unadjusted data, Mean (serum uric acid [1]; [6]): 0.20
Serum uric acid, unadjusted data, Median (serum uric acid [1]; [6]): 0.21
Serum uric acid, baseline adjusted data, Mean (serum uric acid [1]; [7]): 0.01
Serum uric acid, baseline adjusted data, Median (serum uric acid [1]; [7]): 0.01
Serum uric acid, unadjusted data, Mean (serum uric acid [1]; [7]): 0.20
Serum uric acid, unadjusted data, Median (serum uric acid [1]; [7]): 0.20
Serum uric acid, baseline adjusted data, Mean (serum uric acid [1]; [8]): 0.03
Serum uric acid, baseline adjusted data, Median (serum uric acid [1]; [8]): 0.03
Serum uric acid, unadjusted data, Mean (serum uric acid [1]; [8]): 0.23
Serum uric acid, unadjusted data, Median (serum uric acid [1]; [8]): 0.23
Effect on serum uric acid levels (serum uric acid [1]; 100 mg or 200 mg qd first day, bid Days 2 to 7): does not decrease
Serum uric acid, baseline adjusted data, Mean (serum uric acid [1]; [9]): −0.01
Serum uric acid, baseline adjusted data, Median (serum uric acid [1]; [9]): −0.01
Serum uric acid, unadjusted data, Mean (serum uric acid [1]; [9]): 0.21
Serum uric acid, unadjusted data, Median (serum uric acid [1]; [9]): 0.21
Serum uric acid, baseline adjusted data, Mean (serum uric acid [1]; [10]): −0.01
Serum uric acid, baseline adjusted data, Median (serum uric acid [1]; [10]): −0.01
Serum uric acid, unadjusted data, Mean (serum uric acid [1]; [10]): 0.21
Serum uric acid, unadjusted data, Median (serum uric acid [1]; [10]): 0.21
Serum uric acid, baseline adjusted data, Mean (serum uric acid [1]; [11]): 0
Serum uric acid, baseline adjusted data, Median (serum uric acid [1]; [11]): 0
Serum uric acid, unadjusted data, Mean (serum uric acid [1]; [11]): 0.22
Serum uric acid, unadjusted data, Median (serum uric acid [1]; [11]): 0.22
Serum uric acid, baseline adjusted data, Mean (serum uric acid [1]; [12]): −0.01
Serum uric acid, baseline adjusted data, Median (serum uric acid [1]; [12]): 0
Serum uric acid, unadjusted data, Mean (serum uric acid [1]; [12]): 0.21
Serum uric acid, unadjusted data, Median (serum uric acid [1]; [12]): 0.21
Serum uric acid, baseline adjusted data, Mean (serum uric acid [1]; [13]): 0.01
Serum uric acid, baseline adjusted data, Median (serum uric acid [1]; [13]): 0.01
Serum uric acid, unadjusted data, Mean (serum uric acid [1]; [13]): 0.22
Serum uric acid, unadjusted data, Median (serum uric acid [1]; [13]): 0.23
Serum uric acid levels over time (serum uric acid [1]; up to 168 hours (7 days) after initiation of treatment): remained constant
Serum uric acid Actual Value, Mean (serum uric acid [2]; 200 mg bid, 3 months Endpoint): 5.20
Serum uric acid Actual Value, Median (serum uric acid [2]; 200 mg bid, 3 months Endpoint): 5.10
Serum uric acid Change from Baseline, Mean (serum uric acid [2]; 200 mg bid, 3 months Endpoint): −0.06
Serum uric acid Change from Baseline, Median (serum uric acid [2]; 200 mg bid, 3 months Endpoint): 0.00
Serum uric acid Actual Value, Mean (serum uric acid [2]; 200 mg bid, Day 7): 5.18
Serum uric acid Actual Value, Median (serum uric acid [2]; 200 mg bid, Day 7): 5.00
Serum uric acid Change from Baseline, Mean (serum uric acid [2]; 200 mg bid, Day 7): −0.05
Serum uric acid Change from Baseline, Median (serum uric acid [2]; 200 mg bid, Day 7): 0.00
Serum uric acid Actual Value, Mean (serum uric acid [2]; 200 mg bid, Day 14): 5.22
Serum uric acid Actual Value, Median (serum uric acid [2]; 200 mg bid, Day 14): 5.05
Serum uric acid Change from Baseline, Mean (serum uric acid [2]; 200 mg bid, Day 14): −0.01
Serum uric acid Change from Baseline, Median (serum uric acid [2]; 200 mg bid, Day 14): −0.10
Serum uric acid Actual Value, Mean (serum uric acid [2]; 200 mg bid, Day 28): 5.18
Serum uric acid Actual Value, Median (serum uric acid [2]; 200 mg bid, Day 28): 5.00
Serum uric acid Change from Baseline, Mean (serum uric acid [2]; 200 mg bid, Day 28): −0.07
Serum uric acid Change from Baseline, Median (serum uric acid [2]; 200 mg bid, Day 28): −0.10
Serum uric acid Actual Value, Mean (serum uric acid [2]; 200 mg bid, Day 42): 5.46
Serum uric acid Actual Value, Median (serum uric acid [2]; 200 mg bid, Day 42): 5.70
Serum uric acid Change from Baseline, Mean (serum uric acid [2]; 200 mg bid, Day 42): 0.12
Serum uric acid Change from Baseline, Median (serum uric acid [2]; 200 mg bid, Day 42): 0.20
Serum uric acid Actual Value, Mean (serum uric acid [2]; 200 mg bid, Day 56): 5.40
Serum uric acid Actual Value, Median (serum uric acid [2]; 200 mg bid, Day 56): 5.20
Serum uric acid Change from Baseline, Mean (serum uric acid [2]; 200 mg bid, Day 56): 0.02
Serum uric acid Change from Baseline, Median (serum uric acid [2]; 200 mg bid, Day 56): 0.00
Serum uric acid Actual Value, Mean (serum uric acid [2]; 200 mg bid, Day 84): 5.37
Serum uric acid Actual Value, Median (serum uric acid [2]; 200 mg bid, Day 84): 5.30
Serum uric acid Change from Baseline, Mean (serum uric acid [2]; 200 mg bid, Day 84): 0.03
Serum uric acid Change from Baseline, Median (serum uric acid [2]; 200 mg bid, Day 84): 0.10
Effect on serum uric acid levels (serum uric acid [2]; 200 mg twice a day (bid), 3 months, male and female outpatients with irritable bowel syndrome): does not decrease
Serum uric acid levels over time (serum uric acid [2]; up to 3 months after initiation of treatment, 200 mg bid): remained constant
Serum uric acid Actual Value, Mean (serum uric acid [3]; 100 mg BID, 3 months Endpoint): 4.94
Serum uric acid Actual Value, Median (serum uric acid [3]; 100 mg BID, 3 months Endpoint): 4.90
Serum uric acid Change from Baseline, Mean (serum uric acid [3]; 100 mg BID, 3 months Endpoint): 0.22
Serum uric acid Change from Baseline, Median (serum uric acid [3]; 100 mg BID, 3 months Endpoint): 0.20
Serum uric acid Actual Value, Mean (serum uric acid [3]; 100 mg BID, Week 12): 4.91
Serum uric acid Actual Value, Median (serum uric acid [3]; 100 mg BID, Week 12): 4.80
Serum uric acid Change from Baseline, Mean (serum uric acid [3]; 100 mg BID, Week 12): 0.23
Serum uric acid Change from Baseline, Median (serum uric acid [3]; 100 mg BID, Week 12): 0.20
Effect on serum uric acid levels (serum uric acid [3]; 100 mg, 200 mg or 300 mg twice a day, 3 months, female outpatients with irritable bowel syndrome): does not decrease
Serum uric acid Actual Value, Mean (serum uric acid [3]; 200 mg BID, 3 months Endpoint): 4.82
Serum uric acid Actual Value, Median (serum uric acid [3]; 200 mg BID, 3 months Endpoint): 4.60
Serum uric acid Change from Baseline, Mean (serum uric acid [3]; 200 mg BID, 3 months Endpoint): −0.19
Serum uric acid Change from Baseline, Median (serum uric acid [3]; 200 mg BID, 3 months Endpoint): −0.20
Serum uric acid Actual Value, Mean (serum uric acid [3]; 200 mg BID, Week 12): 4.82
Serum uric acid Actual Value, Median (serum uric acid [3]; 200 mg BID, Week 12): 4.60
Serum uric acid Change from Baseline, Mean (serum uric acid [3]; 200 mg BID, Week 12): −0.20
Serum uric acid Change from Baseline, Median (serum uric acid [3]; 200 mg BID, Week 12): −0.20
Serum uric acid Actual Value, Mean (serum uric acid [3]; 300 mg BID, 3 months Endpoint): 5.04
Serum uric acid Actual Value, Median (serum uric acid [3]; 300 mg BID, 3 months Endpoint): 5.00
Serum uric acid Change from Baseline, Mean (serum uric acid [3]; 300 mg BID, 3 months Endpoint): −0.05
Serum uric acid Change from Baseline, Median (serum uric acid [3]; 300 mg BID, 3 months Endpoint): 0.00
Serum uric acid Actual Value, Mean (serum uric acid [3]; 300 mg BID, Week 12): 5.02
Serum uric acid Actual Value, Median (serum uric acid [3]; 300 mg BID, Week 12): 4.95
Serum uric acid Change from Baseline, Mean (serum uric acid [3]; 300 mg BID, Week 12): −0.06
Serum uric acid Change from Baseline, Median (serum uric acid [3]; 300 mg BID, Week 12): −0.05
Serum uric acid levels over time (serum uric acid [3]; up to 3 months after initiation of treatment, 100, 200 or 300 mg twice a day): remained constant
